Measurements published in patent US20060166236A1, “Allosteric enzyme coupled immunoassay (AECIA)” (priority 2004, published 2006).

Tests used:
[1] = target: T1, potato tuber PPi-PFK (pyrophosphate-dependent fructose-6-phosphate kinase, EC2.7.1.90) (Solanum tuberosum, UniProt P21342+P21343); experiment: Stimulation assay of potato tuber PPi-PFK by Fructose 2,6 Pi; format: biochemical; details: in the presence of 1 mM fructose 6-phosphate and 2.5 mM PPi; FIG. 3; read-out: half-maximal effect (activation of potato tuber PPi-PFK)
T1 construct: Peeled potato tubers (330 g) were homogenized in a blendor; from tissue; host or cells: potato tubers
T1 sequence (P21342 1-616): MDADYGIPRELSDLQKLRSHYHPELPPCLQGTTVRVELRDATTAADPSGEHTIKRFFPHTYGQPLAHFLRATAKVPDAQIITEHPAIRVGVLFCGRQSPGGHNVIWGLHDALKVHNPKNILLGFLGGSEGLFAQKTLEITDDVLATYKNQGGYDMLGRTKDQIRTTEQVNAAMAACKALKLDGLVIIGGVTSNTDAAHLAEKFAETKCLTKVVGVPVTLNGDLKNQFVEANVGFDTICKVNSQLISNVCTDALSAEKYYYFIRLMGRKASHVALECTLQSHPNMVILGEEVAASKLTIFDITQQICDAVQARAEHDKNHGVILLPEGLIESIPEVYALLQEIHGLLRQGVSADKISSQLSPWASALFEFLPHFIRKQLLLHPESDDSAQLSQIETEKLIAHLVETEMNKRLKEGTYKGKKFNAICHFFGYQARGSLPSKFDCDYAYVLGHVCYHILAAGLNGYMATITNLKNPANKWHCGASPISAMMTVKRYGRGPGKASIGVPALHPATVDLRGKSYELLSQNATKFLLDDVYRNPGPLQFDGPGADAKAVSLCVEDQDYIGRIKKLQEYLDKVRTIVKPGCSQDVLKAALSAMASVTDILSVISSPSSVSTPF
T1 sequence (P21343 1-569): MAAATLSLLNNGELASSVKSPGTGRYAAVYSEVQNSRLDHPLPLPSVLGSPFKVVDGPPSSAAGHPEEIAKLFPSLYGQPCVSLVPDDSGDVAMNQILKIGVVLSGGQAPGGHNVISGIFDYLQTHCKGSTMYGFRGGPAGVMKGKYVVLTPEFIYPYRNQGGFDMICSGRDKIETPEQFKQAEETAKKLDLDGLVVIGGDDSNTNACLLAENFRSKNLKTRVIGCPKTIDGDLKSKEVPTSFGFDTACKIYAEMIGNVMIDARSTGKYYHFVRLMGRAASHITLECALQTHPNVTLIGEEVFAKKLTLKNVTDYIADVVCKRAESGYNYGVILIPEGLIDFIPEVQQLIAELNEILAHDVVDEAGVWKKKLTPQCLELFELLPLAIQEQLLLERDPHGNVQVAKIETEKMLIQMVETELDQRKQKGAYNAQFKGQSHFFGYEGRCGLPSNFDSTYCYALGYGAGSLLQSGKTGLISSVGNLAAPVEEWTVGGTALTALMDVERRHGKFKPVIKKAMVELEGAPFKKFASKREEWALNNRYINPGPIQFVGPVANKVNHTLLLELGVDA
Description: Potato tubers PPi-PFK was purified according to the procedure described in Van Schafingen et al., Eur. J. Biochem., 129:191-195 (1982). Peeled potato tubers (330 g) were homogenized in a blendor with 2 volume of ice-cold 20 mM Hepes pH8.2 containing 20 mM potassium acetate and 2 mM dithiothreitol. The homogenate was filtered through cheese cloth. Solid sodium pyrophosphate and 1 mM MgCl2 were added to the filtrate to reach 2 mM and the pH was adjusted to 8.2 at 0° C. The mixture was brought to 59° C. by shaking in a water bath adjusted to 70° C. and maintained for 5 min in a water bath at 59° C.; it was then cooled and brought to pH 7.1 at 0° C. All subsequent steps were carried out at 0-4° C. Six (6) g of poly(ethylene glycol) 6000 were added per 100 ml of solution and after mixing for 15 min, the preparation was allowed to stand for 10 min and then centrifuged for 10 min at 4000×g; 8 g of poly(ethylene glycol) were then added per 100 ml of the resulting supernatant (700 ml) which was mixed and centrifuged as described above. The resulting pellet was dissolved in 40 ml of a solution containing 20 mM Tris, pH8.2, 20 mM KCl, and 2 mM dithiothreitol and applied to a column (25×120 mm) of DEAE-cellulose equilibrated with the same buffer. The column was washed with 100 ml of buffer and developed with a gradient of KCl (20-400 mM) in the same dithiothreitol/Tris buffer. […]

[2] = target: T2, rat liver PFK (ATP-dependent fructose-6-phosphate kinase, EC2.7.1.11) (Rattus norvegicus, UniProt P30835); experiment: Stimulation assay of rat liver phosphofructokinase by Fructose 2,6 Pi; format: biochemical; details: in the presence of 2 mM fructose 6-phosphate and 1 mM AMP; pH 7.1, 22° C.; 3 mM ATP; FIG. 4; read-out: half-maximal effect (activation of rat liver PFK)
T2 construct: Fresh livers from rats were homogenized in a homogenizer with 3 volumes of chilled buffer; from tissue; host or cells: rat liver
T2 sequence (P30835 1-780): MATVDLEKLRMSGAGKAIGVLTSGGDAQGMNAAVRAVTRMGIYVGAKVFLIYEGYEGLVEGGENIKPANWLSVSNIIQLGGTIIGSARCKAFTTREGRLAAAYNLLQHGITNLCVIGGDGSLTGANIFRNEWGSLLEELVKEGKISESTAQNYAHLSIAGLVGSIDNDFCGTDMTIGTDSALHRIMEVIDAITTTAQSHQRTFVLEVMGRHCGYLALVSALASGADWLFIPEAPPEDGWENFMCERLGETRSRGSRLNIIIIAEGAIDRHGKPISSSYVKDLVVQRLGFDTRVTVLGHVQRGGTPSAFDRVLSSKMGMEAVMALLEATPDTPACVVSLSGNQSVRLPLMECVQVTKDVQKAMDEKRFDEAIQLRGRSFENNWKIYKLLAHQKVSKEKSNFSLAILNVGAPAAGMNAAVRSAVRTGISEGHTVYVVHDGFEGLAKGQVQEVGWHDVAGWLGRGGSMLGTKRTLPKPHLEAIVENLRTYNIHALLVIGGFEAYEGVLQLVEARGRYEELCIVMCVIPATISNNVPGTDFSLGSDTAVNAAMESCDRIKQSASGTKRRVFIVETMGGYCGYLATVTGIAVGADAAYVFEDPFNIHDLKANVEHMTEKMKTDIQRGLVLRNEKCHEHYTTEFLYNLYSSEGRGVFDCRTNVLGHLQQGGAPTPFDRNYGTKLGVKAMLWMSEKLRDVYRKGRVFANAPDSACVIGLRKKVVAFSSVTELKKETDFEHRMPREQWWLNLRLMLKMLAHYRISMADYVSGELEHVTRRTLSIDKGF
Description: ATP-dependent fructose-6-phosphate kinase (EC2.7.1.11) was purified from rat livers according to the procedures described in Reinhart and Lardy., Biochemistry, 19:1477-1484 (1980). The purification procedure includes a heat step, ammonium sulfate precipitation, and DEAE ion-exchange and gel filtration chromatography as follows:
The assay was performed at pH 7.1 and 22° C. The incubation mixture contained 100 mM KCl, 1 mM NH4Cl, 0.15 mM NADH, 50 mM Hepes buffer, 50 μg/ml aldolase, 10 μg/ml glycerol-3-phosphate dehydrogenase, 1 μg/ml triose phosphate isomerase, 5 mM MgCl2, 1 mM AMP, 2 mM fructose 6-phosphate, and 0.2 mM Pi. The reaction was initiated by adding 3 mM ATP.

- EC50 [1]: ~0.0055 µM
- EC50 [2]: ~0.04 µM
SMILES: O=P(O)(O)OCC1OC(CO)(OP(=O)(O)O)C(O)C1O (centres unmarked) [fructose 2, 6 Pi, fructose-2,6-bisphosphate]
